Laboratory results as given in patent US9266876B2 (Actelion Pharmaceuticals Ltd., priority 2012, dated 2016).

Legend:
human CXCR3A = human CXCR3A (Homo sapiens (Human), UniProt P49682); experiment: FLIPR assay; assay type: cell-based; conditions: CHO-K1 cells expressing the human CXCR3A coupled to Galpha(16); CXCL10 agonist 20 nM; Fluo-4-AM fluorescence; mean values if determined several times
Procedure, shortened: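 CHO-K1 cells expressing CXCR3A coupled to Gα16 were loaded with Fluo-4-AM for 1 h in Hepes-buffered HBSS, pH 7.4, with 5 mM probenecid. Compound dilutions were added on the FLIPR, followed by CXCL10 (added as a 20 nM solution). Baseline-subtracted peak fluorescence was fitted to a single-site curve for IC50.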

CXCR3 = CXCR3 (Homo sapiens (Human), UniProt P49682); experiment: Receptor internalization assay; assay type: cell-based; conditions: human whole blood; final CXCL10 concentration 9 nM; 30 min 37° C.; CXCR3 cell surface expression on CD3 positive cells, flow cytometer; read-out: Internalization IC50
Experimental: B): Receptor Internalization Assay:
Stock solutions of test compounds are made up at a concentration of 10 mM in DMSO, and serially diluted in PBS containing 0.5% BSA to concentrations required for inhibition dose response curves. Diluted compounds are then mixed with an equal volume of CXCL10 (Peprotech) diluted in PBS. Anticoagulated venous human whole blood is added to the mixture, which is then incubated in a CO2 incubator at 37° C. to allow for ligand mediated receptor internalization (final CXCL10 concentration is 9 nM). After 30′, the blood is mixed with fluorescently labeled CXCR3 and CD3 specific antibodies (Becton Dickinson) and incubated on ice for 10 minutes. Samples are then mixed with BD FACS Lysing Solution (Becton Dickinson) in order to eliminate red blood cells. After washing the cells with PBS containing 0.5% BSA, the samples are then analyzed in a flow cytometer (FACS Canto II, Becton Dickinson). For data analysis using FACSDiva software (Becton Dickinson), the mean fluorescence corresponding to CXCR3 cell surface expression was determined on CD3 positive cells. The program GraphPad Prism is used to fit the data to a single site dose response curve and to calculate IC50 values.

Chain of human CXCR3A (P49682 whole entry): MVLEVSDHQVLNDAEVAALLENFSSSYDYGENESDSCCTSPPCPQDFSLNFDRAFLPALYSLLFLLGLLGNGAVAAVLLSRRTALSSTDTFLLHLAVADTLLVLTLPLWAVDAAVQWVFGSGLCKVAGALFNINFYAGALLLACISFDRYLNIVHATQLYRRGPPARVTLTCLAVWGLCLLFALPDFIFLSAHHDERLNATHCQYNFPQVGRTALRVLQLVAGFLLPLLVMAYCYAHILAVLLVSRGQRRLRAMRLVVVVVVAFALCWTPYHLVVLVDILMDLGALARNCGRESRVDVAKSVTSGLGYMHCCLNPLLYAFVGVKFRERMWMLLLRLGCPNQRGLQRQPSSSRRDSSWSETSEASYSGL
Chain of CXCR3 (P49682 whole entry): as above

Compound: O=C(Cn1ccc2c(Cl)cccc21)N1CCN(c2scnc2-c2nc3ccccc3[nH]2)CC1 [Example 60, 1-{4-[4-(1H-Benzoimidazol-2-yl)-thiazol-5-yl]-piperazin-1-yl}-2-(4-chloro-indol-1-yl)-ethanone]
- IC50 (human CXCR3A): 8 nM
- IC50 (CXCR3): 1400 nM

Compound: N#Cc1cccc2ccn(CC(=O)N3CCN(c4scnc4-c4nc5ccccc5[nH]4)CC3)c12 [Example 61, 1-(2-{4-[4-(1H-Benzoimidazol-2-yl)-thiazol-5-yl]-piperazin-1-yl}-2-oxo-ethyl)-1H-indole-7-carbonitrile]
- IC50 (human CXCR3A): 2 nM
- IC50 (CXCR3): 458 nM

Compound: O=C(Cn1ccc2ccc(Cl)nc21)N1CCN(c2scnc2-c2nc3ccccc3[nH]2)CC1 [Example 65, 1-{4-[4-(1H-Benzoimidazol-2-yl)-thiazol-5-yl]-piperazin-1-yl}-2-(6-chloro-pyrrolo[2,3-b]pyridin-1-yl)-ethanone]
- IC50 (human CXCR3A): 3 nM
- IC50 (CXCR3): 816 nM

Compound: O=C(CN1C(=O)Cc2ccccc21)N1CCN(c2scnc2-c2nc3ccccc3[nH]2)CC1 [Example 68, 1-(2-{4-[4-(1H-Benzoimidazol-2-yl)-thiazol-5-yl]-piperazin-1-yl}-2-oxo-ethyl)-1,3-dihydro-indol-2-one]
- IC50 (human CXCR3A): 8 nM
- IC50 (CXCR3): 749 nM

Compound: O=C(Cn1c(=O)[nH]c2cccnc21)N1CCN(c2scnc2-c2nc3ccccc3[nH]2)CC1 [Example 71, 3-(2-{4-[4-(1H-Benzoimidazol-2-yl)-thiazol-5-yl]-piperazin-1-yl}-2-oxo-ethyl)-1,3-dihydro-imidazo[4,5-b]pyridin-2-one]
- IC50 (human CXCR3A): 6 nM
- IC50 (CXCR3): 639 nM

Compound: C[C@@H]1CN(c2scnc2-c2nc3cc(Cl)ccc3[nH]2)C[C@H](C)N1C(=O)Cn1cnc2cccnc21 [Example 72, 1-{(2S,6R)-4-[4-(5-Chloro-1H-benzoimidazol-2-yl)-thiazol-5-yl]-2,6-dimethyl-piperazin-1-yl}-2-imidazo[4,5-b]pyridin-3-yl-ethanone]
- IC50 (human CXCR3A): 1 nM
- IC50 (CXCR3): 231 nM

Compound: C[C@@H]1CN(c2sc(C3CC3)nc2-c2nc3ccccc3[nH]2)CCN1C(=O)Cn1cnc2cccnc21 [Example 73, 1-{(R)-4-[4-(1H-Benzoimidazol-2-yl)-2-cyclopropyl-thiazol-5-yl]-2-methyl-piperazin-1-yl}-2-imidazo[4,5-b]pyridin-3-yl-ethanone]
- IC50 (human CXCR3A): 6 nM
- IC50 (CXCR3): 800 nM

Compound: Cn1c(=O)n(CC(=O)N2CCN(c3scnc3-c3nc4ccc(OC(F)(F)F)cc4[nH]3)CC2)c2ccccc21 [Example 74, 1-Methyl-3-(2-oxo-2-{4-[4-(6-trifluoromethoxy-1H-benzoimidazol-2-yl)-thiazol-5-yl]-piperazin-1-yl}-ethyl)-1,3-dihydro-benzoimidazol-2-one]
- IC50 (human CXCR3A): 2 nM
- IC50 (CXCR3): 1040 nM

Compound: Cn1c(=O)n(CC(=O)N2CCN(c3scnc3-c3nc4cc(C#N)ccc4[nH]3)CC2)c2ccccc21 [Example 75, 2-(5-{4-[2-(3-Methyl-2-oxo-2,3-dihydro-benzoimidazol-1-yl)-acetyl]-piperazin-1-yl}-thiazol-4-yl)-1H-benzoimidazole-5-carbonitrile]
- IC50 (human CXCR3A): 15 nM
- IC50 (CXCR3): 721 nM

Compound: O=C(CN1C(=O)CCc2ccccc21)N1CCN(c2scnc2-c2nc3ccccc3[nH]2)CC1 [Example 77, 1-(2-{4-[4-(1H-Benzoimidazol-2-yl)-thiazol-5-yl]-piperazin-1-yl}-2-oxo-ethyl)-3,4-dihydro-1H-quinolin-2-one]
- IC50 (human CXCR3A): 6 nM
- IC50 (CXCR3): 1440 nM

Compound: O=C(CN1C(=O)COc2ccccc21)N1CCN(c2scnc2-c2nc3ccccc3[nH]2)CC1 [Example 78, 4-(2-{4-[4-(1H-Benzoimidazol-2-yl)-thiazol-5-yl]-piperazin-1-yl}-2-oxo-ethyl)-4H-benzo[1,4]oxazin-3-one]
- IC50 (human CXCR3A): 11 nM
- IC50 (CXCR3): 3120 nM

Compound: O=C(Cn1cnc2cccnc21)N1[C@@H]2CC[C@H]1CN(c1scnc1-c1nc3ccccc3[nH]1)C2 [Example 79, rac-1-{(1S*,5R*)-3-[4-(1H-Benzoimidazol-2-yl)-thiazol-5-yl]-3,8-diaza-bicyclo[3.2.1]oct-8-yl}-2-imidazo[4,5-b]pyridin-3-yl-ethanone]
- IC50 (human CXCR3A): 6 nM
- IC50 (CXCR3): 828 nM

Compound: C[C@@H]1CN(c2sc(Br)nc2-c2nc3ccccc3[nH]2)CCN1C(=O)Cn1cnc2cccnc21 [Example 80, 1-{(R)-4-[4-(1H-Benzoimidazol-2-yl)-2-bromo-thiazol-5-yl]-2-methyl-piperazin-1-yl}-2-imidazo[4,5-b]pyridin-3-yl-ethanone]
- IC50 (human CXCR3A): 1 nM
- IC50 (CXCR3): 459 nM

Compound: C[C@@H]1CN(c2scnc2-c2nc3ccc(Cl)cc3[nH]2)CCN1C(=O)Cn1cnc2cccnc21 [Example 83, 1-{(R)-4-[4-(6-Chloro-1H-benzoimidazol-2-yl)-thiazol-5-yl]-2-methyl-piperazin-1-yl}-2-imidazo[4,5-b]pyridin-3-yl-ethanone]
- IC50 (human CXCR3A): 1 nM
- IC50 (CXCR3): 340 nM

Compound: C[C@@H]1CN(c2scnc2-c2nc3cc(Cl)ccc3[nH]2)CCN1C(=O)Cn1c(=O)oc2ccccc21 [Example 84, 3-(2-{(R)-4-[4-(5-Chloro-1H-benzoimidazol-2-yl)-thiazol-5-yl]-2-methyl-piperazin-1-yl}-2-oxo-ethyl)-3H-benzooxazol-2-one]
- IC50 (human CXCR3A): 1 nM
- IC50 (CXCR3): 517 nM

Compound: Cc1ccc2[nH]c(-c3ncsc3N3CCN(C(=O)Cn4cnc5cccnc54)[C@H](C)C3)nc2c1 [Example 85, 2-Imidazo[4,5-b]pyridin-3-yl-1-{(R)-2-methyl-4-[4-(5-methyl-1H-benzoimidazol-2-yl)-thiazol-5-yl]-piperazin-1-yl}-ethanone]
- IC50 (human CXCR3A): 1 nM
- IC50 (CXCR3): 499 nM

Compound: Cc1cc2[nH]c(-c3ncsc3N3CCN(C(=O)Cn4cnc5cccnc54)[C@H](C)C3)nc2cc1Cl [Example 87, 1-{(R)-4-[4-(5-Chloro-6-methyl-1H-benzoimidazol-2-yl)-thiazol-5-yl]-2-methyl-piperazin-1-yl}-2-imidazo[4,5-b]pyridin-3-yl-ethanone]
- IC50 (human CXCR3A): 1 nM
- IC50 (CXCR3): 205 nM

Compound: CC(C)c1ccc2nc(-c3ncsc3N3CCN(C(=O)Cn4cnc5cccnc54)[C@H](C)C3)[nH]c2c1 [Example 88, 2-Imidazo[4,5-b]pyridin-3-yl-1-{(R)-4-[4-(6-isopropyl-1H-benzoimidazol-2-yl)-thiazol-5-yl]-2-methyl-piperazin-1-yl}-ethanone]
- IC50 (human CXCR3A): 1 nM
- IC50 (CXCR3): 126 nM

Compound: C[C@@H]1CN(c2scnc2-c2nc3cc(F)c(F)cc3[nH]2)CCN1C(=O)Cn1cnc2cccnc21 [Example 91, 1-{(R)-4-[4-(5,6-Difluoro-1H-benzoimidazol-2-yl)-thiazol-5-yl]-2-methyl-piperazin-1-yl}-2-imidazo[4,5-b]pyridin-3-yl-ethanone]
- IC50 (human CXCR3A): 0.4 nM
- IC50 (CXCR3): 895 nM

Compound: C[C@@H]1CN(c2scnc2-c2nc3cc(C(F)(F)F)ccc3[nH]2)CCN1C(=O)Cn1cnc2cccnc21 [Example 92, 2-Imidazo[4,5-b]pyridin-3-yl-1-{(R)-2-methyl-4-[4-(5-trifluoromethyl-1H-benzoimidazol-2-yl)-thiazol-5-yl]-piperazin-1-yl}-ethanone]
- IC50 (human CXCR3A): 1 nM
- IC50 (CXCR3): 317 nM

Compound: C[C@@H]1CN(c2scnc2-c2nc3cc(F)ccc3[nH]2)CCN1C(=O)Cn1cnc2cccnc21 [Example 96, 1-{(R)-4-[4-(5-Fluoro-1H-benzoimidazol-2-yl)-thiazol-5-yl]-2-methyl-piperazin-1-yl}-2-imidazo[4,5-b]pyridin-3-yl-ethanone]
- IC50 (human CXCR3A): 0.5 nM
- IC50 (CXCR3): 566 nM

Compound: CCc1ccc2nc(-c3ncsc3N3CCN(C(=O)Cn4cnc5cccnc54)[C@H](C)C3)[nH]c2c1 [Example 99, 1-{(R)-4-[4-(6-Ethyl-1H-benzoimidazol-2-yl)-thiazol-5-yl]-2-methyl-piperazin-1-yl}-2-imidazo[4,5-b]pyridin-3-yl-ethanone]
- IC50 (human CXCR3A): 1 nM
- IC50 (CXCR3): 221 nM

Compound: C[C@@H]1CN(c2scnc2-c2nc3ccc(-c4ccccc4)cc3[nH]2)CCN1C(=O)Cn1cnc2cccnc21 [Example 100, 2-Imidazo[4,5-b]pyridin-3-yl-1-{(R)-2-methyl-4-[4-(6-phenyl-1H-benzoimidazol-2-yl)-thiazol-5-yl]-piperazin-1-yl}-ethanone]
- IC50 (human CXCR3A): 1 nM
- IC50 (CXCR3): 747 nM

Compound: C[C@@H]1CN(c2sc(C(F)(F)F)nc2-c2nc3ccccc3[nH]2)CCN1C(=O)CN1C(=O)Cc2ccccc21 [Example 103, 1-(2-{(R)-4-[4-(1H-Benzoimidazol-2-yl)-2-trifluoromethyl-thiazol-5-yl]-2-methyl-piperazin-1-yl}-2-oxo-ethyl)-1,3-dihydro-indol-2-one]
- IC50 (human CXCR3A): 1 nM
- IC50 (CXCR3): 81 nM

Compound: C[C@@H]1CN(c2sc(C(F)(F)F)nc2-c2nc3ccccc3[nH]2)CCN1C(=O)Cn1c(=O)[nH]c2cccnc21 [Example 104, 3-(2-{(R)-4-[4-(1H-Benzoimidazol-2-yl)-2-trifluoromethyl-thiazol-5-yl]-2-methyl-piperazin-1-yl}-2-oxo-ethyl)-1,3-dihydro-imidazo[4,5-b]pyridin-2-one]
- IC50 (human CXCR3A): 1 nM
- IC50 (CXCR3): 119 nM
